Among the data in patent publication US10688093B2, “Methods, compositions, and uses of novel Fyn kinase inhibitors” (priority 2015, dated 2020) are IC50 values, retold here.

In general, IC50 refers to the concentration that inhibits the measured activity by half.

Chain of full-length recombinant human FYN A (P06241 whole entry): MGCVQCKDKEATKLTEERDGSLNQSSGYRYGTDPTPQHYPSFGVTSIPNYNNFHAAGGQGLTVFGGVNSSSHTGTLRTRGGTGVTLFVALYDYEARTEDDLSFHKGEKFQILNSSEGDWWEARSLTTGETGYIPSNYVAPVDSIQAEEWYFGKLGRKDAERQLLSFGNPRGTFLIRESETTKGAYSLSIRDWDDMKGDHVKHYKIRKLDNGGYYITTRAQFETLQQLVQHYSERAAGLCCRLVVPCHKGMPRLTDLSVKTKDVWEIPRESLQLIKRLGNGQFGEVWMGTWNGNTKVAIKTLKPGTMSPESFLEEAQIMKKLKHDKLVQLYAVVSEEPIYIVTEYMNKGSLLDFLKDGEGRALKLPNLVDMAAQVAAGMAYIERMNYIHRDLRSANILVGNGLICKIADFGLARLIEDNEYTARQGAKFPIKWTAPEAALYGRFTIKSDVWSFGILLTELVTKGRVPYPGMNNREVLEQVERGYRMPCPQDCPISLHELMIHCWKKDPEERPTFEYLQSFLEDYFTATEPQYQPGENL

The first assay concerns the target full-length recombinant human FYN A (Homo sapiens (Human), UniProt P06241). The experiment in a line: ADP-Glo Kinase Assay of FYN kinase inhibition. Format: biochemical. The note with it: primary screen, initial compounds. The method, boiled down: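 ADP-Glo read-out of peptide phosphorylation after 90 min RT with 12.5 pmol ATP and 100 pg 12-mer substrate. Enzyme was N-GST full-length human FYN A from insect cells, 3 pg, pre-incubated 30 min with compound, 10 points from 10 μM top, 3-fold steps; IC50 from curve.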
A general note: ADP-Glo turns the ADP formed in a reaction into a luminescent signal.
Consider `CN1CCN(c2ccc(-c3cn4c(-c5ccc(O)cc5)cnc4cn3)cn2)CC1` [Compound 250, 4-[6-[6-(4-methylpiperazin-1-yl)-3-pyridyl]imidazo [1,2-a]pyrazin-3-yl]phenol], for which the IC50 worked out at 2.21 µM.

As for `CCC(CO)Nc1cncc(-c2ccc(N)cc2)n1` (stereo not shown) [035_0153_0333, 2-[[6-(4-aminophenyl)pyrazin-2-yl]amino]butan-1-ol], the IC50 came out at 21.1 µM.

Regarding `Fc1ccc(Cc2ccc3ncc(-c4ccncc4)n3n2)cc1` [Compound 429, 6-[(4-fluorophenyl)methyl]-3-(4-pyridyl)imidazo [1,2-b]pyridazine], the concentration for half-maximal inhibition (IC50) came to 1.45 µM.

Regarding `COc1cc(-c2cc(-c3ccc(F)c(Cl)c3)cnc2N)ccc1O` [382_0314_0164, 4-[2-amino-5-(3-chloro-4-fluoro-phenyl)-3-pyridyl]-2-methoxy-phenol], the IC50 was determined as 11.3 µM.

Turning to `COCCNc1ccc2ncc(-c3ccc(OC)c(OC)c3)n2n1` [229_0033_0079, 3-(3,4-dimethoxy-phenyl)-N-(2-methoxyethyl) imidazo[1,2-b]pyridazin-6-amine], the half-inhibitory concentration (IC50) worked out at 1.55 µM.

In the case of `COc1cccc(-n2c(N)c(C(N)=O)c3nc4ccccc4nc32)c1` [Compound 577, 2-amino-1-(3-methoxyphenyl) pyrrolo[3,2-b]quinoxaline-3-carboxamide], the IC50 worked out at 1.18 µM.

`Oc1cccc(-c2cnc3ccc(-c4cccc5ncccc45)nn23)c1` [Compound 383, 3-[6-(5-quinolyl)imidazo [1,2-b]pyridazin-3-yl]phenol]: the IC50 stood at 14.6 µM.

As for `COc1ccccc1-c1ccc2ncc(-c3cccc(CO)c3)n2n1` [Compound 323, [3-[6-(2-methoxyphenyl)imidazo[1,2-b]pyridazin-3-yl]phenyl] methanol], the IC50 turned out to be 1.07 µM.

In the case of `COC(=O)c1c(N)n(-c2cccc(O)c2)c2nc3ccccc3nc12` [Compound 600, methyl 2-amino-1-(3-hydroxy-phenyl)pyrrolo [3,2-b]quinoxaline-3-carboxylate], the half-maximal inhibitory concentration (IC50) stood at 2.26 µM.

With `COc1ccccc1-c1n[nH]c2nccc(-c3ccc(C(N)=O)cc3)c12` [Compound 502, 4-[3-(2-methoxyphenyl)-1H-pyrazolo[3,4-b]pyridin-4-yl]benzamide], the IC50 amounted to 1.48 µM.

Regarding `CCCNc1ccc2ncc(-c3ccc(OC)c(OC)c3)n2n1` [229_0226_0079, 3-(3,4-dimethoxy-phenyl)-N-propyl-imidazo[1,2-b]pyridazin-6-amine], the half-maximal inhibitory concentration (IC50) was determined as 0.519 µM.

For `CN(C)CCNC(=O)c1cccc(-c2cnc3ccc(-c4ccoc4)nn23)c1` [Compound 487, N-(2-dimethylamino-ethyl)-3-[6-(3-furyl)imidazo [1,2-b]pyridazin-3-yl]benzamide], the IC50 stood at 3.88 µM.

Take `CC(=O)c1cccc(-c2cnc3ccc(-c4cccs4)nn23)c1` [Compound 451, 1-[3-[6-(2-thienyl)imidazo [1,2-b]pyridazin-3-yl]phenyl] ethanone]: the IC50 is 0.416 µM.

As for `c1cncc(-c2cnc3ccc(-c4cccs4)nn23)c1` [Compound 353, 3-(3-pyridyl)-6-(2-thienyl) imidazo[1,2-b] pyridazine], the IC50 was 0.346 µM.

As to `CC(=O)Nc1cccc(-c2ccc3ncc(-c4ccccc4)n3n2)c1` [Compound 339, N-[3-(3-phenylimidazo [1,2-b]pyridazin-6-yl)phenyl] acetamide], the IC50 came to 3.66 µM.

Take `c1ccc(-c2cnc3ccc(-c4ccncc4)nn23)cc1` [Compound 325, 3-phenyl-6-(4-pyridyl)imidazo [1,2-b]pyridazine]: the half-inhibitory concentration (IC50) was 6.93 µM.

Consider `Oc1cccc(-c2ccc3ncc(-c4ccncc4)n3n2)c1` [Compound 326, 3-[3-(4-pyridyl)imidazo [1,2-b]pyridazin-6-yl]phenol], for which the half-maximal inhibitory concentration (IC50) was 0.223 µM.

On to `CC(=O)Nc1cccc(-c2cnc3sc(NCc4cccs4)nn23)c1` [Compound 260, N-[3-[2-(2-thienylmethyl-amino)imidazo [2,1-b] [1,3,4]thiadiazol-5-yl]phenyl] acetamide], for which the IC50 is 3.93 µM.

Take `OCc1ccc(-c2cnc3ccc(Cc4ccccc4)nn23)cc1` [Compound 479, [4-(6-benzylimidazo [1,2-b]pyridazin-3-yl)phenyl] methanol]: the IC50 came to 3.23 µM.

Take `Cc1cc(-c2cnc(N)c(-c3ccncc3)c2)cc(C)c1O` [382_0069_0315, 4-[6-amino-5-(4-pyridyl)-3-pyridyl]-2,6-dimethyl-phenol]: the IC50 was 1.7 µM.

Turning to `COc1ccc(-c2ccc3ncc(-c4cccc(NC(C)=O)c4)n3n2)cc1OC` [Compound 411, N-[3-[6-(3,4-dimethoxyphenyl)imidazo[1,2-p]pyridazin-3-yl]phenyl] acetamide], the IC50 came out at 0.259 µM.

With `NC(=O)c1ccc(-c2cnc3ccc(Cc4ccc(F)c(F)c4)nn23)cc1` [Compound 464, 4-[6-[(3,4-difluorophenyl)methyl]imidazo [1,2-b]pyridazin-3-yl]benzamide], the 50% inhibitory concentration (IC50) stood at 3.07 µM.

In the case of `CS(=O)(=O)c1ccc(-c2ccc3ncc(-c4cccc(CO)c4)n3n2)cc1` [Compound 338, [3-[6-(4-methylsulfonyl-phenyl)imidazo [1,2-b]pyridazin-3-yl]phenyl] methanol], the half-maximal inhibitory concentration (IC50) is 3.04 µM.

Turning to `Nc1ncc(-c2ccc(N3CCOCC3)cc2)cc1-c1cccc(O)c1` [382_0284_0001, 3-[2-amino-5-(4-morpholino-phenyl)-3-pyridyl]phenol], the IC50 was 4.64 µM.

Take `CS(=O)(=O)Nc1cccc(-c2cnc3sc(NC4CCCCC4)nn23)c1` [Compound 568, N-[3-[2-(cyclohexylamino)imidazo[2,1-b] [1,3,4]thiadiazol-5-yl]phenyl] methane-sulfonamide]: the IC50 stood at 4.33 µM.

For `COc1cccc(-c2ccc3ncc(-c4cccc(C(C)=O)c4)n3n2)c1` [Compound 428, 1-[3-[6-(3-methoxyphenyl)imidazo[1,2-b]pyridazin-3-yl]phenyl] ethanone], the IC50 stood at 1.78 µM.

As for `COc1cc(-c2cc(-c3ccc(S(C)(=O)=O)cc3)cnc2N)ccc1O` [382_0314_0174, 4-[2-amino-5-(4-methylsulfonyl-phenyl)-3-pyridyl]-2-methoxy-phenol], the IC50 turned out to be 0.349 µM.

Take `COc1cc(-c2ccc3ncc(-c4cccc(NC(C)=O)c4)n3n2)cc(OC)c1OC` [Compound 329, N-[3-[6-(3,4,5-trimethoxyphenyl)imidazo[1,2-b]pyridazin-3-yl]phenyl] acetamide]: the IC50 is 3.13 µM.

`CC(=O)Nc1cccc(-c2ccc3ncc(-c4cccc(C(C)=O)c4)n3n2)c1` [Compound 281, N-[3-[3-(3-acetylphenyl)imidazo[1,2-b]pyridazin-6-yl]phenyl] acetamide]: the IC50 amounted to 0.621 µM.

On to `CC(=O)c1cccc(-c2cnc3ccc(-c4cccc(C(=O)NCCO)c4)nn23)c1` [Compound 478, 3-[3-(3-acetylphenyl)imidazo[1,2-b]pyridazin-6-yl]-N-(2-hydroxyethyl) benzamide], for which the IC50 turned out to be 0.629 µM.

Take `COc1ccc(-c2cnc3ccc(-c4cccs4)nn23)cc1OC` [Compound 441, 3-(3,4-dimethoxy-phenyl)-6-(2-thienyl)imidazo [1,2-b]pyridazine]: the IC50 was found to be 0.211 µM.

The same assay, now with this note: secondary screen, re-synthesized and expanded compounds.
For `CCCNc1ccc2ncc(-c3ccc(O)c(OC)c3)n2n1` [BF000147080, 2-methoxy-4-[6-(propyl-amino)-imidazo[1,2-b]pyridazin-3-yl]phenol], the IC50 was determined as 0.0816 µM.

As for `COc1cc(-c2cnc3ccc(-c4cccc(CO)c4)nn23)ccc1O` [BF000726487, 4-[6-[3-(hydroxy-methyl)-phenyl]-imidazo[1,2-b]pyridazin-3-yl]-2-methoxy-phenol], the IC50 came to 0.063 µM.

In the case of `COc1cncc(-c2cnc3sc(NCC4CCOCC4)nn23)c1` [BF000714923, 5-(5-methoxy-3-pyridyl)-N-(tetra-hydropyran-4-ylmethyl)-imidazo[2,1-b][1,3,4]-thiadiazol-2-amine], the IC50 came out at 0.293 µM.

Regarding `COc1cc(-c2cc(-c3ccccc3)cnc2N)cc(OC)c1OC` [BF000312489, 5-phenyl-3-(3,4,5-trimethoxy-phenyl)-pyridin-2-amine], the IC50 is 1.31 µM.

For the compound `CC(=O)Nc1cccc(-c2cnc3ccc(-c4ccncc4)nn23)c1` [BF000817142, N-[3-[6-(4-pyridyl)-imidazo[1,2-b]pyridazin-3-yl]phenyl]-acetamide], the IC50 was 0.741 µM.

For `COc1cc(-c2cnc3ccc(N[C@H](CO)C(C)C)nn23)ccc1O` [BF000146319, 4-[6-[[(1S)-1-(hydroxy-methyl)-2-methyl-propyl]-amino]-imidazo[1,2-b]pyridazin-3-yl]-2-methoxy-phenol], the 50% inhibitory concentration (IC50) was determined as 0.443 µM.

For the compound `CC(=O)Nc1cccc(-c2ccc3ncc(-c4cccc(CO)c4)n3n2)c1` [BF000726367, N-[3-[3-[3-(hydroxy-methyl)phenyl]-imidazo[1,2-b]pyridazin-6-yl]phenyl]-acetamide], the IC50 was determined as 1.52 µM.

With `CC(=O)c1cccc(-c2cnc3ccc(NCc4ccc5c(c4)OCO5)nn23)c1` [BF000147140, 1-[3-[6-(1,3-benzodioxol-5-ylmethyl-amino)-imidazo[1,2-b]pyridazin-3-yl]phenyl]-ethanone], the IC50 was 3.19 µM.

Take `c1ccc(CNc2nn3c(-c4cccnc4)cnc3s2)cc1` [BF000714845, N-benzyl-5-(3-pyridyl)-imidazo[2,1-b][1,3,4]-thiadiazol-2-amine]: the IC50 was determined as 0.634 µM.

As to `CN1CCN(c2ccc(-c3cnc(N)c(-c4ccc(O)cc4)c3)cc2)CC1` [BF000710044, 4-[2-amino-5-[4-(4-methyl-piperazin-1-yl)phenyl]-3-pyridyl]-phenol], the IC50 stood at 0.521 µM.

`COc1cc(-c2cc(-c3cc(OC)c(OC)c(OC)c3)cnc2N)ccc1O` [BF000313035, 4-[2-amino-5-(3,4,5-trimethoxy-phenyl)-3-pyridyl]-2-methoxy-phenol]: the IC50 turned out to be 0.116 µM.

Consider `COc1ccc(-c2cnc3sc(NCC4CCOCC4)nn23)cc1OC` [BF000817208, 5-(3,4-dimethoxy-phenyl)-N-(tetra-hydropyran-4-ylmethyl)-imidazo[2,1-b][1,3,4]-thiadiazol-2-amine], for which the IC50 came out at 1.03 µM.
